Here are results for 15 compounds from paper PMC12796986 (Journal of medicinal chemistry, 2025).

Data set [1] has as its target mpox resolvase (Mpr) (Monkeypox virus, UniProt A0A7H0DNC1). Kind of data set: biochemical. Format: biochemical.
For data set [2], the system named is VACV-Gluc reporter virus. The data set can be described thus: microbe, parasite or virus in culture. Type of data set: cell-based, vaccinia virus. The note with it: for EC50: Orthopoxvirus vaccinia, HFF, 24 h, read-out: VACV EC50.
Data set [3] is described as follows: in vitro. The conditions noted are these: human.
The conditions of data set [4]: pH 7.2.
The conditions of data set [5]: microsomes.
A short description of data set [6]: physchem. The note with it: pH 7.2, aqueous buffer, kinetic from dmso stock.
A short description of data set [7]: in vitro. The note with it: human, plasma, pH 7.4.
Data set [8] in a line: in vitro. The conditions noted are these: human, microsomes, pH 7.4.
A short description of data set [9]: in vitro. The note with it: PAMPA. Background: PAMPA measures passive passage across an artificial lipid membrane.
Data set [10] has as its system fowlpox virus resolvase (Fpr). The note with it: read-out: Fpr IC50; cited from earlier work.

In brackets after ≈: the same amount, converted by molar mass. Where two headings read alike, the source gives them in different places. Where only a bound is given, the exact number is not on record here.

mpox resolvase (Mpr), sequence (A0A7H0DNC1 whole entry, looked up): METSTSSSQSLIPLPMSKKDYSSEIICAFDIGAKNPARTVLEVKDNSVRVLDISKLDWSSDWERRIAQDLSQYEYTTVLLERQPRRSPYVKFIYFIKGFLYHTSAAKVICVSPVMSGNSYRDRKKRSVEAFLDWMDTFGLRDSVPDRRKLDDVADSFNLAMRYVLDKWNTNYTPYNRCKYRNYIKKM

`COc1ccc(-c2cnc3c(c2)c(O)c(-c2ccccc2)c(=O)n3O)cc1F` [4a-10, 6-(3-fluoro-4-methoxyphenyl)-1,4-dihydroxy-3-phenyl-1,8-naphthyridin-2(1H)-one] yielded a half-inhibitory concentration (IC50) in data set [1] of 1.6 ± 0.2 µM. In addition, in data set [2], the “SI (selectivity index, CC50 / EC50)” value is greater than 26 and the concentration giving a half-maximal response (EC50) is 9.7 ± 0.3 µM. The CC50 in [3] was greater than 250 µM.

`O=c1c(-c2ccccc2)c(O)c2c(-c3cccc(-c4ccccc4)c3)ccnc2n1O` [5-1, 5-([1,1’-biphenyl]-3-yl)-1,4-dihydroxy-3-phenyl-1,8-naphthyridin-2(1H)-one]: in [1], inhibition was half-maximal at 0.036 ± 0.001 µM (IC50) and the “fold improvement in Mpr inhibition over C-6 regioisomer (compound 3 for 5-1)” value is given as 10 fold. Further, in [2], the “SI (selectivity index, CC50 / EC50)” value is 4.7 × 10^4; the “fold better antiviral potency than brincidofovir” value was found to be 2 fold; the “fold improvement in antiviral potency against VACV over compound 3” value amounted to 400 fold; the EC50 came out at 0.0032 ± 0.0007 µM. The “solubility” value in data set [4] is on record as “acceptable solubility”. In data set [5], the “human microsomal stability” value is “excellent human microsomal stability”. The same compound came in with a CC50 in data set [3] of 150 µM. This compound had a solubility in data set [6] of 130 ± 4 µM (≈ 52.8 µg/mL). In data set [7], this compound had a half-life greater than 24 h. The compound also displayed a half-life in [8] greater than 2 h. In [9], this compound gave a Papp of 9 ± 1 ×10⁻⁶ cm/s.

`CCCCCCCCCCCCCCCCOCCCOP(=O)(O)CO[C@H](CO)Cn1ccc(N)nc1=O` [Brincidofovir, brincidofovir, reference compound]: in [2], the “SI (selectivity index, CC50 / EC50)” value is >3 × 10^4 and the EC50 came out at 0.007 ± 0.004 µM. The compound further displayed a CC50 in [3] greater than 250 µM.

As for `O=c1cc(O)c2c(-c3cccc(-c4ccccc4)c3)ccnc2n1O` [5-3, 5-([1,1’-biphenyl]-3-yl)-1,4-dihydroxy-1,8-naphthyridin-2(1H)-one], in [1], the IC50 is 0.015 ± 0.001 µM and the “fold improvement in Mpr inhibition over C-6 regioisomer (compound 3 for 5-1)” value is 10 fold. For the same compound, the concentration for a half-maximal effect (EC50) in [2] is 6 ± 1 µM. In data set [3], this compound registered a CC50 greater than 250 µM.

`O=c1c(-c2ccccc2)c(O)c2cc(-c3ccccc3)cnc2n1O` [4a-5, 1,4-dihydroxy-3,6-diphenyl-1,8-naphthyridin-2(1H)-one]: half-maximal inhibition in data set [1] (IC50) required 0.9 ± 0.2 µM. In data set [2], the “SI (selectivity index, CC50 / EC50)” value is listed as >1.0 × 10^2 and the 50% effective concentration (EC50) was 2.4 ± 0.3 µM. Further, the CC50 in [3] was greater than 250 µM.

Turning to `O=c1c(-c2ccccc2)c(O)c2cc(-c3ccc(Oc4ccccc4)cc3)cnc2n1O` [4a-3, 1,4-dihydroxy-6-(4-phenoxyphenyl)-3-phenyl-1,8-naphthyridin-2(1H)-one], half-maximal inhibition in data set [1] (IC50) was put at 0.12 ± 0.01 µM. For the same compound, the “SI (selectivity index, CC50 / EC50)” value in [2] is recorded as >1.9 × 10^2. The EC50 in [2] was 1.3 ± 0.4 µM. Also, the CC50 in [3] is greater than 250 µM. The same compound registered a solubility in data set [6] of 86 ± 5 µM (≈ 36.3 µg/mL). The half-life in data set [7] is greater than 24 h; in data set [8] it was 0.715 ± 0.0117 h. In data set [9], the Papp turned out to be 8.6 ± 0.8 ×10⁻⁶ cm/s.

With `CCc1c(O)c2cc(-c3ccc(Oc4ccccc4)cc3)cnc2n(O)c1=O` [4b-3, 3-ethyl-1,4-dihydroxy-6-(4-phenoxyphenyl)-1,8-naphthyridin-2(1H)-one], the midpoint of inhibition in data set [1], the IC50, lay at 0.32 ± 0.06 µM. In addition, in [2], the “SI (selectivity index, CC50 / EC50)” value is >1.5 × 10^2 and the EC50 was 1.6 ± 0.1 µM. In data set [3], this compound displayed a CC50 greater than 250 µM. For the same compound, in data set [6], the solubility was found to be 47 ± 4 µM (≈ 17.6 µg/mL). This compound also showed a half-life in [7] greater than 24 h. The compound also displayed a half-life in [8] of 0.587 ± 0.0133 h. The same compound gave an apparent permeability coefficient (Papp) in [9] of 5.2 ± 0.6 ×10⁻⁶ cm/s.

`CCc1c(O)c2cc(-c3ccc(-c4ccccc4)cc3)cnc2n(O)c1=O` [4b-2, 6-([1,1’-biphenyl]-4-yl)-3-ethyl-1,4-dihydroxy-1,8-naphthyridin-2(1H)-one]: it took 0.36 ± 0.02 µM to reach half-maximal inhibition in [1] (IC50). Besides, the “SI (selectivity index, CC50 / EC50)” value in data set [2] is listed as >6.4 × 10^2. In addition, in [2], the 50% effective concentration (EC50) came out at 0.39 ± 0.01 µM. Besides, the CC50 in [3] is greater than 250 µM. In addition, in data set [6], the concentration in solution (solubility) came to 1.4 ± 0.1 µM (≈ 0.502 µg/mL). Also, the results for the half-life in data set [7] and in data set [8] were greater than 24 h and greater than 2 h, respectively. In addition, in data set [9], the apparent permeability (Papp) turned out to be 3.8 ± 0.1 ×10⁻⁶ cm/s.

In [1], `CCc1c(O)c2cc(-c3cccc(-c4ccccc4)c3)cnc2n(O)c1=O` [4b-1, 6-([1,1’-biphenyl]-3-yl)-3-ethyl-1,4-dihydroxy-1,8-naphthyridin-2(1H)-one] displayed an IC50 of 0.8 ± 0.03 µM.

With `O=c1c(-c2ccccc2)c(O)c2cc(-c3cccc(-c4ccccc4)c3)cnc2n1O` [compound 3, 6-([1,1’-biphenyl]-3-yl)-1,4-dihydroxy-3-phenyl-1,8-naphthyridin-2(1H)-one], the IC50 in data set [1] was 0.34 ± 0.06 µM; in data set [10], 0.3 µM. Moreover, in [2], the “SI (selectivity index, CC50 / EC50)” value is given as >1.9 × 10^2. In addition, in data set [2], the concentration for a half-maximal effect (EC50) came to 1.3 ± 0.3 µM. For the same compound, the “solubility” value in data set [4] is “acceptable solubility”; in [6], 130 ± 8 µM (≈ 52.8 µg/mL). Moreover, the “human microsomal stability” value in data set [5] is reported as “excellent human microsomal stability”. Moreover, the CC50 in data set [3] was greater than 250 µM. Further, the half-life in [7] was greater than 24 h; in data set [8] it was greater than 2 h. The apparent permeability coefficient (Papp) in data set [9] was found to be 6 ± 2 ×10⁻⁶ cm/s.

As to “3-(5,8-dihydroxy-7-oxo-6-phenyl-7,8-dihydro-1,8-naphthyridin-3-yl) benzamide [4a-12]”, the “fluorescence quenching in the FRET assay” value in [1] was “fluorescence quenching”.

Take `O=c1c(-c2ccccc2)c(O)c2cc(-c3ccc4c(c3)OCO4)cnc2n1O` [4a-19, 6-(benzo[d][1,3]dioxol-5-yl)-1,4-dihydroxy-3-phenyl-1,8-naphthyridin-2(1H)-one]: in [1], the IC50 was determined as 1.1 ± 0.1 µM.

As to `O=c1c(-c2ccccc2)c(O)c2cc(-c3ccccc3F)cnc2n1O` [4a-6, 6-(2-fluorophenyl)-1,4-dihydroxy-3-phenyl-1,8-naphthyridin-2(1H)-one], 1.1 ± 0.1 µM corresponded to half-maximal inhibition in data set [1] (IC50).

As for `O=c1cc(O)c2cc(-c3ccc(Oc4ccccc4)cc3)cnc2n1O` [4c-3, 1,4-dihydroxy-6-(4-phenoxyphenyl)-1,8-naphthyridin-2(1H)-one], the “fluorescence quenching in the FRET assay” value in [1] is listed as “direct quenching of fluorophore”.

In the case of `O=c1c(-c2ccccc2)c(O)c2cc(C3CC3)cnc2n1O` [4a-30, 6-cyclopropyl-1,4-dihydroxy-3-phenyl-1,8-naphthyridin-2(1H)-one], the IC50 in data set [1] is 8 ± 1 µM.

What is called IC50 is the concentration that gives 50% inhibition. As usually defined, the EC50 is the midpoint of the concentration-response curve. In general, solubility refers to the concentration that dissolves in the medium under given conditions. A high value points to a readily soluble substance. For orientation: half-life means the time in which the quantity being followed falls by half. A lower half-life goes with rapid decline. As a reminder, the Papp is the rate of passage across a membrane or cell layer, normalised by area and donor concentration. A higher Papp goes with fast passage.
